# Test system: relapsing remitting multiple sclerosis patients
# Test: Multiple Sclerosis Functional Composite (MSFC): PASAT3, 9-Hole Peg Test, 25-foot Walk Time
# Assay type: in vivo, human
# Excerpt: Secondary efficacy end points included the proportion of subjects with a relapse over all 24 months, a change in PASAT cognitive testing, a sustained improvement in PASAT cognitive testing (as defined by an increase of at least 3 points sustained over at least 6 months), a change in EDSS scores from baseline, disability progression (as defined by an increase in EDSS of at least 1.0 point in subjects with a baseline score of 1.0 or higher, or by an increase of at least a 1.5 points in subjects with a baseline score of 0, each sustained for at least 6 months). Tertiary end points included gray matter atrophy on MRI.
# Linear mixed effects model was carried out to compare the percent change in whole gray matter and cortical gray matter between treatment groups. For the exploratory endpoints of EDSS, PASAT, and brain volume measures, linear mixed effects model was used to compare treatment groups at 12 and 24 months. Linear mixed effects model was carried out to evaluate the association between PASAT change and percent brain volume change.
# Another clinical disability measure with treatment effects was the timed 25-foot walk test. This test measures how many seconds it takes to walk 25 feet, with higher scores indicating worse disability. […] This beneficial effect of estriol treatment on 25-foot walking times is consistent with the beneficial effect of estriol treatment on EDSS scores since the latter is weighted toward being an indicator of ambulation.
# There were no significant differences between groups in the Multiple Sclerosis Functional Composite (MSFC), which reflects a composite of scores including the Paced Auditory Serial Addition Test (PASAT) for cognition, the 9 hole peg test and the 25 foot walk test (Table 4). However, an interesting effect of combination treatment was observed on cognitive disability. A perfect PASAT score is 60, with scores lower than 55 serving as a continuous variable for disability. […] After 12 months of treatment, patients receiving Copaxone® plus estriol continued to have high PASAT scores to the end of study at month 24, while participants receiving placebo began to show […] PASAT scores by month 24. […] This represents repair of disability, not merely prevention of worsening. This beneficial effect on PASAT scores at 12 months in the Estriol plus GA group could not be attributed to practice effects of repeated testing since the comparison was with the Placebo plus GA group tested at identical time points.
# [1] = first of two lines headed Month 24 (N = 70 / N = 60), positive value indicates worsening
# [2] = positive value indicates improvement
# [3] = positive value indicates worsening
# [4] = second line headed Month 24 (N = 60 / N = 55), positive value indicates worsening
substance,measurement,setting,value
glatiramer acetate [Placebo + GA],"PASAT score change at 12 months, within group comparison",FIG. 7B,no change
same,PASAT scores improvement compared with baseline,by 12 months of treatment,no significant improvement
same,"25-foot Walk Time, Change from baseline at Month 24, Mean ± SD",[1],0.0 ± 0.9
same,"25-foot Walk Time, Change from baseline at Month 24, Median",[1],0.0
same,"timed 25-foot walk test, walk time","over the study, higher scores indicate worse disability",significantly increased
same,"MSFC Score, Change from baseline at Month 12, Mean ± SD",[2],0.06 ± 0.38
same,"MSFC Score, Change from baseline at Month 24, Mean ± SD",[2],0.09 ± 0.43
same,"PASAT3 score - All Patients, % change from baseline at Month 12, Mean ± SD",[2],0.8 ± 9.9%
same,"PASAT3 score - All Patients, % change from baseline at Month 12, Median",[2],0%
same,"PASAT3 score - All Patients, % change from baseline at Month 24, Mean ± SD",[2],2.7 ± 10.3%
same,"PASAT3 score - All Patients, % change from baseline at Month 24, Median",[2],0%
same,"PASAT3 score - All Patients, change from baseline at Month 12, Mean ± SD",[2],0.1 ± 4.5
same,"PASAT3 score - All Patients, change from baseline at Month 12, Median",[2],0
same,"PASAT3 score - All Patients, change from baseline at Month 24, Mean ± SD",[2],1.1 ± 4.3
same,"PASAT3 score - All Patients, change from baseline at Month 24, Median",[2],0
same,"PASAT3 score - Patients with baseline score <55, % change from baseline at Month 12, Mean ± SD",[2],4.0 ± 14.0%
same,"PASAT3 score - Patients with baseline score <55, % change from baseline at Month 12, Median",[2],3.8%
same,"PASAT3 score - Patients with baseline score <55, % change from baseline at Month 24, Mean ± SD",[2],6.9 ± 14.7%
same,"PASAT3 score - Patients with baseline score <55, % change from baseline at Month 24, Median",[2],9.1%
same,"PASAT3 score - Patients with baseline score <55, change from baseline at Month 12, Mean ± SD",[2],1.6 ± 6.0
same,"PASAT3 score - Patients with baseline score <55, change from baseline at Month 12, Median",[2],1.0
same,"PASAT3 score - Patients with baseline score <55, change from baseline at Month 24, Mean ± SD",[2],3.0 ± 5.9
same,"PASAT3 score - Patients with baseline score <55, change from baseline at Month 24, Median",[2],4.0
same,"9-Hole Peg Test, Change from baseline at Month 12, Mean ± SD",[3],−0.1 ± 1.8
same,"9-Hole Peg Test, Change from baseline at Month 12, Median",[3],−0.4
same,"9-Hole Peg Test, Change from baseline at Month 24, Mean ± SD",[3],−0.4 ± 1.5
same,"9-Hole Peg Test, Change from baseline at Month 24, Median",[3],−0.5
same,"25-foot Walk Time, Change from baseline at Month 24, Mean ± SD",[4],0.1 ± 1.1
same,"25-foot Walk Time, Change from baseline at Month 24, Median",[4],0.1

# Reference: patent publication US10821117B2, “Estrogen therapy for brain gray matter atrophy and associated disability” (The Regents of the University of California, priority 2014, dated 2020)
